pEC50: −log10 of the molar value. Activity calls are given as the source filed them.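 How the source made its calls: active means percent MAC1 positive of at least 15% at the highest dose, plus EC50 under 10 µM; inactive means the rest.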
Test system: not listed separately
Experiment: MAC1 induction in U937 cells – cell-based, MAC1 flow cytometry, set 1, SAR follow-up (AID 743178)
Conditions: U937 myeloid differentiation, MAC1 flow cytometry, 4 d; at 10 µM (top of the series)

Row | Structure (SMILES) | percent MAC1 positive
1 | O=C(CNC(=O)c1ccc(Cl)cc1)N[C@@H]1CCCc2ccccc21 | 1.65% (inactive)
2 | O=C(CCCNC(=O)c1ccc(Cl)c(Cl)c1)N[C@@H]1CCCc2ccccc21 | 1.27% (inactive)
3 | CC(NC(=O)CCNC(=O)c1ccc(Cl)cc1)c1ccc2c(c1)OCO2 (centres undefined) | 1.17% (inactive)
4 | CC(NC(=O)C1CCCN(C(=O)c2ccc(Cl)cc2)C1)c1ccccc1 (centres undefined) | 1.23% (inactive)
5 | O=C(CNC(=O)c1ccc(Cl)c(Cl)c1)N[C@@H]1CCCc2ccccc21 | 1.68% (inactive)
6 | O=C(Cc1ccc(Cl)cc1)NCCC(=O)N[C@@H]1CCCc2ccccc21 | 13.3% (inactive)
7 | CC(c1ccccc1)N(C)C(=O)CCNC(=O)c1ccc(Cl)cc1 (centres undefined) | 0.788% (inactive)
8 | O=C(CNC(=O)c1ccc(OC(F)(F)F)cc1)N[C@@H]1CCCc2ccccc21 | 1.56% (inactive)
9 | COc1ccccc1C(C)NC(=O)CCNC(=O)c1ccc(Cl)cc1 (centres undefined) | 0.779% (inactive)
10 | CC(C)(C)OC(=O)NCCC(=O)N[C@@H]1CCCc2ccccc21 | 1.18% (inactive)
11 | O=C(O)c1cccnc1Nc1ccc(Cl)cc1 | 85% (inactive)
12 | CC(=O)NCCC(=O)N[C@@H]1CCCc2ccccc21 | 0.776% (inactive)
13 | N#Cc1ccc(C(=O)NCCC(=O)N[C@@H]2CCCc3ccccc32)cc1 | 0.711% (inactive)
14 | O=C(CNC(=O)c1ccc(C(F)(F)F)cc1)N[C@@H]1CCCc2ccccc21 | 1.08% (inactive)
15 | NCCC(=O)N[C@@H]1CCCc2ccccc21 | 1.1% (inactive)
16 | O=C(NC1CCOc2ccccc21)C1CCCN(C(=O)c2ccc(Cl)cc2)C1 (centres undefined) | 0.843% (inactive)

Row | Structure (SMILES) | percent MAC1 positive
17 | O=C(NC1CCc2ccccc21)C1CCCN(C(=O)c2ccc(Cl)cc2)C1 (centres undefined) | 1.16% (inactive)
18 | CC(NC(=O)CCNC(=O)c1ccc(Cl)cc1)c1ccc(F)cc1 (centres undefined) | 3.42% (inactive)
19 | Cc1cccc(C(=O)NCCC(=O)NC2CCCc3ccccc32)c1 (centres undefined) | 1.09% (inactive)
20 | O=C(CCNC(=O)c1ccc(Cl)cc1)N[C@H]1CCCc2ccccc21 | 2.12% (inactive)
21 | CC(C)(C)OC(=O)NCCC(=O)N[C@H]1CCCc2ccccc21 | 1.16% (inactive)
22 | O=C(O)c1ccccc1OCc1ccccc1Br | 0% (inactive)
23 | O=C(CCNC(=O)c1ccc(Cl)cc1)N[C@@H]1CCc2ccccc21 | 6% (inactive)
24 | Cc1ccc(C)c(OCCn2cc(C(=O)O)c3ccccc32)c1 | 0% (inactive)
25 | O=C(CCNC(=O)c1ccc(Cl)cc1)NC1CCCCC1 | 1.63% (inactive)
26 | O=C(CCCNC(=O)c1ccc(Cl)cc1)N[C@@H]1CCCc2ccccc21 | 1.04% (inactive)
27 | O=C(CCNC(=O)c1ccccc1)N[C@@H]1CCCc2ccccc21 | 1.8% (inactive)
28 | O=C(CCCNC(=O)c1ccc(OC(F)(F)F)cc1)N[C@@H]1CCCc2ccccc21 | 0.912% (inactive)
29 | COc1ccc(C(=O)NCCC(=O)N[C@@H]2CCCc3ccccc32)cc1 | 28.1% (inactive)
30 | O=C(CCCNC(=O)c1ccc(C(F)(F)F)cc1)N[C@@H]1CCCc2ccccc21 | 2.46% (inactive)
31 | C[C@@H](NC(=O)CCNC(=O)c1ccc(Cl)cc1)c1ccccc1 | 1.51% (inactive)

Test system: U937 myeloid differentiation, MAC1 flow cytometry, 4 d
Experiment: as above
Conditions: not given

Row | pEC50 | Structure (SMILES)
32 | 5.65 | O=C(CCNC(=O)c1ccc(C(F)(F)F)cc1)N[C@@H]1CCCc2ccccc21
33 | 5.56 | O=C(CCNC(=O)c1ccc(Cl)cc1)N[C@@H]1CCCc2ccccc21
34 | 5.38 | Cc1ccc(C(=O)NCCC(=O)N[C@@H]2CCCc3ccccc32)cc1
35 | 5.10 | O=C(CCNC(=O)c1cccc(Cl)c1)N[C@@H]1CCCc2ccccc21
36 | 5.47 | O=C(CCNC(=O)c1ccc(Cl)c(Cl)c1)N[C@@H]1CCCc2ccccc21
37 | 5.68 | O=C(CCNC(=O)c1ccc(OC(F)(F)F)cc1)N[C@@H]1CCCc2ccccc21
38 | 5.34 | O=C(CCNC(=O)c1ccc(Cl)cc1)NC1CCCc2ccccc21 (centres undefined)
39 | 5.36 | O=C(CCNC(=O)c1ccc2c(c1)OC(F)(F)O2)N[C@@H]1CCCc2ccccc21

Source: PubChem BioAssay AID743178 (NMMLSC, 2013)
